# Assay results published in paper PMC12280724 (Frontiers in Pharmacology, 2025).
# Values joined by “and” are separate entries in the source; they are usually repeats but may differ in a detail not shown here. Identical values can stand only once. Marks after values point to notes of the source that are not given here.
# Experiments:
# [1] = In vitro stability in human serum at 37 °C; type: in vitro ADME; conditions: at 24 h
# Protocol: Aliquots (0.2 mL) were withdrawn at predefined intervals and analyzed using a paper chromatographic technique ([Rathmann et al., 2019]). Chromatographic separation was carried out using a Shimadzu system ([Shimadzu Corporation]) (Genzo Shimadzu Sr., Kyoto, Japan), comprising LC-9A pumps, a Rheodyne injector (Model 7125), and an ultraviolet spectrophotometer detector (SPD-6A, Shimadzu). The mobile phase consisted of acetonitrile and water (65:35) containing 0.1% trifluoroacetic acid, delivered at a flow rate of 1.0 mL/min. […] Separated fractions were collected for up to 12 min, and the radiochemical integrity was subsequently evaluated using a well-type NaI(Tl) ([Al Oraini, 2018]) detector linked to a single-channel analyzer.
# [2] = In vivo biodistribution of [^99mTc]Tc-carvedilol in healthy Swiss albino mice; conditions: for [^99mTc]Tc-carvedilol percentages of injected dose per Gram organ: i.v. tail vein
# Source text: For biodistribution and receptor occupancy studies, 24 healthy adult Swiss albino mice (12 males and 12 females, aged 10–12 weeks, weighing 25–30 g) were obtained from the Egyptian National Research Center. Mice outside the 25–30 g weight range were excluded to ensure consistency in the biodistribution outcomes. Prior to the study, animals were housed in groups of four with ad libitum access to food and water and underwent a 2-week acclimatization period. After this adaptation phase, the mice were randomly assigned to the study groups using the lot-drawing method.
# Given ^99mTc’s physical half-life of approximately 6 h, shorter imaging and sampling intervals are generally preferred to maximize radioactive signal fidelity and minimize decay-related variability. At 24 h post-injection, the residual ^99mTc activity could fall below quantifiable thresholds, potentially compromising the precision of biodistribution data. To prevent this, all data collection was restricted to early post-injection intervals—specifically […]—when radioactivity levels remain within optimal detection ranges for gamma counting. By omitting the 24 h time point altogether, the study design ensured that the radiotracer signal would be robust enough to yield statistically reliable biodistribution profiles without being confounded by the isotope’s exponential decay. Additionally, prior pilot studies were conducted to empirically determine the time window during which the radiochemical integrity and quantification signal-to-noise ratio remained analytically valid. These informed the exclusion of late-phase sampling and reinforced confidence in the reliability of kinetic data collected within the defined 6 h observation window. Therefore, six mice were euthanized at each selected time point via standardized cervical dislocation performed by trained personnel in accordance with institutional animal care guidelines. The procedure followed the AVMA Guidelines for the Euthanasia of Animals ([Kirkwood, 2013]), ensuring it was rapid, humane, and reproducible. To ensure procedural consistency, all cervical dislocations were performed by the same experienced researcher, following pre-established protocols that involved correct animal positioning, anatomical landmark identification, and verification of death through cessation of heartbeat and respiration. Immediately postmortem, body weight was recorded, and blood was collected via cardiac puncture.
# Organ harvesting included the collection of the heart, liver, lungs, kidneys, spleen, stomach, intestines, muscle (right leg), bone, and brain. Following dissection, tissues were gently rinsed with isotonic saline to remove residual blood, promptly weighed, kept at low temperatures, and immediately subjected to gamma counting to preserve radiochemical integrity and avoid post-collection decay artifacts. No storage or freezing was used to prevent degradation or leakage of [^99mTc]Tc-carvedilol. Sample processing occurred in a shielded, on-site laboratory adjacent to the dissection area, ensuring minimal delay—typically less than 2 to 3 minutes—between collection and measurement.
# To ensure methodological rigor and reproducibility, both experimental and computational components of the study were supported by a structured statistical framework. A total of 24 healthy albino mice (12 males, 12 females), aged 10–12 weeks and weighing 25 ± 3 g, were selected based on uniform health status, age, and weight to minimize inter-animal variability. Animals were maintained under controlled laboratory conditions (12-h light/dark cycle, standardized humidity, and temperature) with unrestricted access to food and water. For biodistribution analysis, animals were randomly assigned to four experimental groups, each consisting of six mice, each representing a distinct post-injection time point (15, 30, 60, and 120 min). […]
structure (smiles),measurement,setting,value
COc1ccccc1OCC[N]1CC(COc2cccc3[nH]c4ccccc4c23)[O][99Tc]12(=[O])[O]C(COc1cccc3[nH]c4ccccc4c13)C[N]2CCOc1ccccc1OC (racemic) [[^99mTc]Tc-carvedilol],serum stability,[1],> 92%
same,Residual [^99mTc]Tc-carvedilol percentages of injected dose per Gram in non-targeted organs,"[2]; Blood row, 30 min post-injection",96.021 ± 0.01 % ID/g
same,Residual [^99mTc]Tc-carvedilol percentages of injected dose per Gram in non-targeted organs,"[2]; Blood row, 60 min post-injection",92.710 ± 0.01 % ID/g
same,Residual [^99mTc]Tc-carvedilol percentages of injected dose per Gram in non-targeted organs,"[2]; Blood row, 120 min post-injection",94.008 ± 0.02 % ID/g
same,[^99mTc]Tc-carvedilol percentages of injected dose per Gram organ,"[2]; Blood, 15 min post-injection",19.895 ± 0.020 ^a % ID/g organ
same,[^99mTc]Tc-carvedilol percentages of injected dose per Gram organ,"[2]; Blood, 30 min post-injection",3.969 ± 0.052 % ID/g organ
same,[^99mTc]Tc-carvedilol percentages of injected dose per Gram organ,"[2]; Blood, 60 min post-injection",7.290 ± 0.052 % ID/g organ
same,[^99mTc]Tc-carvedilol percentages of injected dose per Gram organ,"[2]; Blood, 120 min post-injection",5.972 ± 0.131 % ID/g organ
same,[^99mTc]Tc-carvedilol percentages of injected dose per Gram organ,"[2]; Bone, 15 min post-injection",0.322 ± 0.035 % ID/g organ
same,[^99mTc]Tc-carvedilol percentages of injected dose per Gram organ,"[2]; Bone, 30 min post-injection",0.963 ± 0.215 % ID/g organ
same,[^99mTc]Tc-carvedilol percentages of injected dose per Gram organ,"[2]; Bone, 60 min post-injection",0.675 ± 0.215 % ID/g organ
same,[^99mTc]Tc-carvedilol percentages of injected dose per Gram organ,"[2]; Bone, 120 min post-injection",2.703 ± 0.019 % ID/g organ
same,Residual [^99mTc]Tc-carvedilol percentages of injected dose per Gram in non-targeted organs,"[2]; Brain row, 15 min post-injection",99.359 ± 0.01 % ID/g
same,Residual [^99mTc]Tc-carvedilol percentages of injected dose per Gram in non-targeted organs,"[2]; Brain row, 30 min post-injection",98.409 ± 0.03 % ID/g
same,Residual [^99mTc]Tc-carvedilol percentages of injected dose per Gram in non-targeted organs,"[2]; Brain row, 60 min post-injection",97.103 ± 0.01 % ID/g
same,Residual [^99mTc]Tc-carvedilol percentages of injected dose per Gram in non-targeted organs,"[2]; Brain row, 120 min post-injection",99.679 ± 0.02 % ID/g
same,[^99mTc]Tc-carvedilol percentages of injected dose per Gram organ,"[2]; Brain, 15 min post-injection",0.631 ± 0.020 % ID/g organ
same,[^99mTc]Tc-carvedilol percentages of injected dose per Gram organ,"[2]; Brain, 30 min post-injection",1.561 ± 0.008 % ID/g organ
same,[^99mTc]Tc-carvedilol percentages of injected dose per Gram organ,"[2]; Brain, 60 min post-injection",2.895 ± 0.391 % ID/g organ
same,[^99mTc]Tc-carvedilol percentages of injected dose per Gram organ,"[2]; Brain, 120 min post-injection",0.301 ± 0.110 % ID/g organ
same,Residual [^99mTc]Tc-carvedilol percentages of injected dose per Gram in non-targeted organs,"[2]; Heart row, 15 min post-injection",72.467 ± 0.02 ^a % ID/g
same,Residual [^99mTc]Tc-carvedilol percentages of injected dose per Gram in non-targeted organs,"[2]; Heart row, 30 min post-injection",92.707 ± 0.02 % ID/g
same,Residual [^99mTc]Tc-carvedilol percentages of injected dose per Gram in non-targeted organs,"[2]; Heart row, 60 min post-injection",97.838 ± 0.03 % ID/g
same,Residual [^99mTc]Tc-carvedilol percentages of injected dose per Gram in non-targeted organs,"[2]; Heart row, 120 min post-injection",96.414 ± 0.07 % ID/g
same,[^99mTc]Tc-carvedilol percentages of injected dose per Gram organ,"[2]; Heart, 15 min post-injection",27.533 % ID/g organ and 27.533 ± 0.931 % ID/g organ and 27.533 ± 0.931 ^a % ID/g organ
same,[^99mTc]Tc-carvedilol percentages of injected dose per Gram organ,"[2]; Heart, 30 min post-injection",7.273 ± 0.006 % ID/g organ
same,[^99mTc]Tc-carvedilol percentages of injected dose per Gram organ,"[2]; Heart, 60 min post-injection",2.161 ± 0.006 % ID/g organ
same,[^99mTc]Tc-carvedilol percentages of injected dose per Gram organ,"[2]; Heart, 120 min post-injection",3.516 ± 0.110 % ID/g organ
same,Residual [^99mTc]Tc-carvedilol percentages of injected dose per Gram in non-targeted organs,"[2]; Intestines row, 15 min post-injection",95.435 ± 0.09 % ID/g
same,Residual [^99mTc]Tc-carvedilol percentages of injected dose per Gram in non-targeted organs,"[2]; Intestines row, 30 min post-injection",96.612 ± 0.03 % ID/g
same,Residual [^99mTc]Tc-carvedilol percentages of injected dose per Gram in non-targeted organs,"[2]; Intestines row, 60 min post-injection",92.604 ± 0.04 % ID/g
same,Residual [^99mTc]Tc-carvedilol percentages of injected dose per Gram in non-targeted organs,"[2]; Intestines row, 120 min post-injection",94.643 ± 0.01 % ID/g
same,[^99mTc]Tc-carvedilol percentages of injected dose per Gram organ,"[2]; Intestines, 15 min post-injection",4.507 ± 0.521 % ID/g organ
same,[^99mTc]Tc-carvedilol percentages of injected dose per Gram organ,"[2]; Intestines, 30 min post-injection",3.358 ± 0.792 % ID/g organ
same,[^99mTc]Tc-carvedilol percentages of injected dose per Gram organ,"[2]; Intestines, 60 min post-injection",7.355 ± 0.792 % ID/g organ
same,[^99mTc]Tc-carvedilol percentages of injected dose per Gram organ,"[2]; Intestines, 120 min post-injection",5.347 ± 0.521 % ID/g organ
same,Residual [^99mTc]Tc-carvedilol percentages of injected dose per Gram in non-targeted organs,"[2]; Kidneys row, 30 min post-injection",67.207 ± 0.04 ^a % ID/g
same,Residual [^99mTc]Tc-carvedilol percentages of injected dose per Gram in non-targeted organs,"[2]; Kidneys row, 60 min post-injection",75.608 ± 0.01 % ID/g
same,Residual [^99mTc]Tc-carvedilol percentages of injected dose per Gram in non-targeted organs,"[2]; Kidneys row, 120 min post-injection",70.660 ± 0.05 % ID/g
same,[^99mTc]Tc-carvedilol percentages of injected dose per Gram organ,"[2]; Kidneys, 15 min post-injection",2.764 ± 0.012 % ID/g organ
